Measured values reported in ChEMBL document CHEMBL1150389, “Synthesis and evaluation of heteroaromatic 6,7-diaryl-2,3,8,8a-tetrahydroindolizin-5(1H)-ones for cytotoxicity against the HCT-116 colon cancer cell line” (Bioorg Med Chem Lett, 2008).

tested on: HCT-116; experiment: Cytotoxicity against human HCT116 cells; type: functional, cell-based

Question: `COc1ccc(C2=C(c3ccccn3)C(=O)N3CCCC3C2)cc1` (stereo not drawn) was tested. Which IC50 did it give?
Answer: 104000 nM

Question: `CSc1ccc(C2=C(c3ccoc3)C(=O)N3CCCC3C2)cc1` (stereo not drawn) was tested. Which IC50 did it give?
Answer: 1100 nM

Question: Which IC50 does the source give for `COc1ccc(C2=C(c3ccncc3)C(=O)N3CCCC3C2)cc1` (stereo not drawn) here?
Answer: 19000 nM

Question: With `COc1ccc(C2=C(c3ccco3)C(=O)N3CCCC3C2)cc1` (stereo not drawn) as the molecule, how does the IC50 read?
Answer: 6000 nM

Question: For `COc1ccc(C2=C(c3ccoc3)C(=O)N3CCCC3C2)cc1` (stereo not drawn), which IC50 is on record?
Answer: 3000 nM

Question: `CSc1ccc(C2=C(c3ccccc3)C(=O)N3CCCC3C2)cc1` (stereo not drawn) was tested. Which IC50 did it give?
Answer: 1000 nM

Question: Which IC50 does the source give for `CSc1ccc(C2=C(c3ccncc3)C(=O)N3CCCC3C2)cc1` (stereo not drawn) here?
Answer: 6000 nM

Question: `CSc1ccc(C2=C(c3ccsc3)C(=O)N3CCCC3C2)cc1` (stereo not drawn) was tested. Which IC50 did it give?
Answer: 600 nM

Question: How did the IC50 turn out when `CSc1ccc(C2=C(c3cccs3)C(=O)N3CCCC3C2)cc1` (stereo not drawn) was run?
Answer: 270 nM

Question: With `CSc1ccc(C2=C(c3ccco3)C(=O)N3CCCC3C2)cc1` (stereo not drawn) as the molecule, how does the IC50 read?
Answer: 3000 nM

Question: With `COc1ccc(C2=C(c3cccs3)C(=O)N3CCCC3C2)cc1` (stereo not drawn) as the molecule, how does the IC50 read?
Answer: 5000 nM

Question: Which IC50 does the source give for `COc1ccc(C2=C(c3ccsc3)C(=O)N3CCCC3C2)cc1` (stereo not drawn) here?
Answer: 1500 nM

Question: How did the IC50 turn out when `COc1ccc(C2=C(c3cccnc3)C(=O)N3CCCC3C2)cc1` (stereo not drawn) was run?
Answer: 79000 nM
